These are literature values, as cited in paper PMC6764291 (Frontiers in Oncology, 2019).

Each structure is given as a SMILES string.

One data set deals with mutant p53 cells. The note with it: in vitro, considerably higher concentrations than required for wt p53 cell lines; cited from earlier work. From the text:
As expected, the two p53 mutated cell lines did n ...

The next data set concerns p53. Details: method as in PMID 14704432. The note with it: cited from earlier work.

Take `COc1ccc(C2=N[C@H](c3ccc(Cl)cc3)[C@H](c3ccc(Cl)cc3)N2C(=O)N2CCN(C(C)=O)CC2)c(OC(C)C)c1` [Nutlin-1]: the “effect on mutant p53 cells” value with mutant p53 cells was “Some effect”.
On to `COc1ccc(C2=N[C@@H](c3ccc(Cl)cc3)[C@@H](c3ccc(Cl)cc3)N2C(=O)N2CCNC(=O)C2)c(OC(C)C)c1` [Nutlin-3], for which the p53-expression result in the data set with p53 was “increased p53-expression was directly correlated to increasing concentrations”.
